This test is described as follows: Calcium oxalate scale inhibition test under conditions similar to an alkaline pulp bleaching process. The conditions noted are these: dosage 25 ppm active acid, 45°C, pH 9.5, 100 ppm calcium, 80 ppm oxalates. How it is done: The preferred oxalate scale inhibiting compound of the invention, i.e. the compound of formula I above, was tested alongside various members of the known "DEQUEST" family of phosphonate inhibitors under conditions similar to those encountered in an alkaline pulp bleaching process. The word "DEQUEST" is a Registered Trade Mark.
The temperature of the aqueous solution used in the tests was maintained at 45°C and the pH at 9.5 (adjusted using an ammonium hydroxide/ammonium chloride buffering agent). Tests times of 2.5, 8 and 24 hours were deployed, and concentrations of 100 ppm of calcium and 80 ppm of oxalates were present in the aqueous solution. A dosage rate of inhibitor of 25 ppm was used in each test. The "DEQUEST" scale inhibitors used in the tests were designated A to E and were as follows: • A - DEQUEST 2066 (diethylenetriaminepenta(methylenephosphonic acid) or its salts) • B - DEQUEST 2046 (ethylenediaminetetra(methylenephosphonic acid) or its salts) • C - DEQUEST 2000 (aminotri(methylenephosphonic acid) or its salts) • D - DEQUEST 2010 (1-hydroxyethylene(1,1 diphosphonic acid)) • E - DEQUEST 2056 (hexamethylenediaminetetra(methylenephosphonic acid) or its salts). TABLE
The results above express the scale-inhibiting effects of the various inhibitors in terms of percentage inhibition.

Counter-ions that a name gives are not always drawn.

Take `CC(O)(P(=O)(O)O)P(=O)(O)O` [D, 1-hydroxyethylene(1,1 diphosphonic acid)]: the “Percentage Inhibition” value (time 2.5 hrs) amounted to 49.

Take “hexamethylenediaminetetra(methylenephosphonic acid) or its salts”: where the note is “time 2.5 hrs”, the “Percentage Inhibition” value stood at 34.

Consider `O=P(O)(O)CN(CP(=O)(O)O)CP(=O)(O)O` [C, aminotri(methylenephosphonic acid) or its salts], for which the “Percentage Inhibition” value (time 2.5 hrs) is 51.

“ethylenediaminetetra(methylenephosphonic acid) or its salts [B]”: the “Percentage Inhibition” value is, setting by setting: (time 2.5 hrs) 50; (time 8 hrs) 23; (time 24 hrs) 14.

Consider “diethylenetriaminepenta(methylenephosphonic acid) or its salts”, for which the “Percentage Inhibition” value was determined as 64 (time 2.5 hrs), 38 (time 8 hrs) and 24 (time 24 hrs).

In the case of `O=P(O)(O)CN(CCCN(CP(=O)(O)O)CP(=O)(O)O)CCN(CCCN(CP(=O)(O)O)CP(=O)(O)O)CP(=O)(O)O` [(I)], the “Percentage Inhibition” value runs as follows: (time 2.5 hrs) 100; (time 8 hrs) 92; (time 24 hrs) 49.

The record behind these values is patent EP0629585A1, “Process of inhibition oxalate scale formation” (MONSANTO EUROPE S.A., priority 1993, dated 1994).
